From patent publication US20240083897A1, “GCN2 MODULATING COMPOUNDS AND USES THEREOF” (HiberCell, Inc., priority 2021, published 2024)
Structures can show the parent of a compound that is named as a salt.

biological target: GCN2 (Homo sapiens (Human), UniProt Q9P2K8); test: TR-FRET biochemical assay for inhibition of GCN2; conditions: not given
Sequence (Q9P2K8 whole entry): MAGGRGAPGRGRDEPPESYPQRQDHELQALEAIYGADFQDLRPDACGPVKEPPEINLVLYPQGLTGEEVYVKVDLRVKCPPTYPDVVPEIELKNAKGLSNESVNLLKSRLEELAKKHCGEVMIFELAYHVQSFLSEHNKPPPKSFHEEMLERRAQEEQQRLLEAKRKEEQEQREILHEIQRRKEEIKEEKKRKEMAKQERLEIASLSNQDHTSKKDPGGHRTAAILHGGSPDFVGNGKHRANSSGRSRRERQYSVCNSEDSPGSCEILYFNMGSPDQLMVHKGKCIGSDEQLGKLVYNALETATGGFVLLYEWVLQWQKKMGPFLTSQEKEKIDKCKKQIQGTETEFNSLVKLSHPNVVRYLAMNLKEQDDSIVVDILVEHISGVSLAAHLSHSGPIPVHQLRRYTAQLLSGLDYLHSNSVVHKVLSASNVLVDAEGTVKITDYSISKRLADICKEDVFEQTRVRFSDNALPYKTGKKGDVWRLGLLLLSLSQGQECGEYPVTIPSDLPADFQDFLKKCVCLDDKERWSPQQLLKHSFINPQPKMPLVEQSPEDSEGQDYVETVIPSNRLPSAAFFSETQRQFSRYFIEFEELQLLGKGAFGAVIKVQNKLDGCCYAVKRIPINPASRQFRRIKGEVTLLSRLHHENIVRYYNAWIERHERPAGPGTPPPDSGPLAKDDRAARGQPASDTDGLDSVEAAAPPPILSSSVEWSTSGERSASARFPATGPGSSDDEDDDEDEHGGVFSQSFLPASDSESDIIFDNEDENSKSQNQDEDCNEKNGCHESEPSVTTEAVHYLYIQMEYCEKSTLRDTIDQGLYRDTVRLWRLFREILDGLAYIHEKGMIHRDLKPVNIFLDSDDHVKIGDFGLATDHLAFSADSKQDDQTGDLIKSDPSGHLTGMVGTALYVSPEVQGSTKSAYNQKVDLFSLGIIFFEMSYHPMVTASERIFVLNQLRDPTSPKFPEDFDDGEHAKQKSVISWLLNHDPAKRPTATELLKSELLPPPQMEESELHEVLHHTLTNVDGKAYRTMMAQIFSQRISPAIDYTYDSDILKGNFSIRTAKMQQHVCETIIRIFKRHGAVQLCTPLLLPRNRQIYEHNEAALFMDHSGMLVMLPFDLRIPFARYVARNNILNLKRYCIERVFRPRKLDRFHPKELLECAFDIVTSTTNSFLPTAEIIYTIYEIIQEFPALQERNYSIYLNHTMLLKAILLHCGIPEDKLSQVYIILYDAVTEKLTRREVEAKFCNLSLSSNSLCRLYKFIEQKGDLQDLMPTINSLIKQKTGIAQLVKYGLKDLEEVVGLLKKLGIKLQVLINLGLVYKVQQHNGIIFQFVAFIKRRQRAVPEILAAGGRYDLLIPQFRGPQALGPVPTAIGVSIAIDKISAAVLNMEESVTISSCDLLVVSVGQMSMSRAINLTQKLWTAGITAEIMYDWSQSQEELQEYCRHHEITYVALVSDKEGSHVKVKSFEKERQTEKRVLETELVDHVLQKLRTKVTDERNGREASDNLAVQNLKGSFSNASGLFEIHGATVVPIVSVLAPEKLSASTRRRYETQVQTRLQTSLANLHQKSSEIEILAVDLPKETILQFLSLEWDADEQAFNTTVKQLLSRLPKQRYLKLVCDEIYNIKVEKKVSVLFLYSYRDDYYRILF

Compound | IC50 [nM]
COc1ncc(C#N)cc1S(=O)(=O)Nc1ccc(F)c([C@@H]2CCc3c(-c4nnc(C)[nH]4)ncn3C2)c1F [Compound 135-1, 5-cyano-N-[2,4-difluoro-3-[(6S)-1-(5-methyl-4H-1,2,4-triazol-3-yl)-5H,6H,7H,8H-imidazo[1,5-a]pyridin-6-yl]phenyl]-2-methoxypyridine-3-sulfonamide] | 50 to 500
COc1ncc(C#N)cc1S(=O)(=O)Nc1ccc(F)c([C@H]2CCc3c(-c4nnc(C)[nH]4)ncn3C2)c1F [Compound 135-2, 5-cyano-N-[2,4-difluoro-3-[(6R)-1-(5-methyl-4H-1,2,4-triazol-3-yl)-5H,6H,7H,8H-imidazo[1,5-a]pyridin-6-yl]phenyl]-2-methoxypyridine-3-sulfonamide] | 50 to 500
CNC(=O)c1ncn2c1CC[C@H](c1c(F)ccc(NS(=O)(=O)c3cc(F)cnc3OC)c1Cl)C2 [Compound 152-1, (6R)-6-[2-chloro-6-fluoro-3-(5-fluoro-2-methoxypyridine-3-sulfonamido)phenyl]-N-methyl-5H,6H,7H,8H-imidazo[1,5-a]pyridine-1-carboxamide] | 50 to 500
CNC(=O)c1ncn2c1CC[C@@H](c1c(F)ccc(NS(=O)(=O)c3cc(F)cnc3OC)c1Cl)C2 [Compound 152-2, (6S)-6-[2-chloro-6-fluoro-3-(5-fluoro-2-methoxypyridine-3-sulfonamido)phenyl]-N-methyl-5H,6H,7H,8H-imidazo[1,5-a]pyridine-1-carboxamide] | 50 to 500
CNC(=O)c1ncn2c1CO[C@@H](c1c(F)ccc(NS(=O)(=O)c3cc(Cl)cnc3OC)c1F)C2 [Compound 154-1, (6S)-6-[3-(5-chloro-2-methoxypyridine-3-sulfonamido)-2,6-difluorophenyl]-N-methyl-5H,6H,8H-imidazo[4,3-c][1,4]oxazine-1-carboxamide] | 50 to 500
CNC(=O)c1ncn2c1CO[C@H](c1c(F)ccc(NS(=O)(=O)c3cc(Cl)cnc3OC)c1F)C2 [Compound 154-2, (6R)-6-[3-(5-chloro-2-methoxypyridine-3-sulfonamido)-2,6-difluorophenyl]-N-methyl-5H,6H,8H-imidazo[4,3-c][1,4]oxazine-1-carboxamide hydrochloride] | 50 to 500

same assay, conditions: GCN2 2 nM, 100 nM GFP-eIF2a, 150 μM ATP, TR-FRET

Compound | IC50 [nM]
CNC(=O)c1ncn2cc(-c3c(F)ccc(NS(=O)(=O)c4cc(Cl)c[nH]c4=O)c3F)ncc12 [Compound 132, 6-(3-((5-chloro-2-oxo-1,2-dihydropyridine)-3-sulfonamido)-2,6-difluorophenyl)-N-methylimidazo[1,5-a]pyrazine-1-carboxamide] | > 1000
Cc1nnc(-c2ncn3cc(-c4c(F)ccc(NS(=O)(=O)c5cc(Cl)cnc5C)c4F)ncc23)[nH]1 [Compound 133, 5-chloro-N-[2,4-difluoro-3-[1-(5-methyl-4H-1,2,4-triazol-3-yl)imidazo[1,5-a]pyrazin-6-yl]phenyl]-2-methylpyridine-3-sulfonamide] | < 50
Cc1nnc(-c2ncn3c2CC[C@@H](c2c(F)ccc(NS(=O)(=O)c4cc(F)cnc4C)c2F)C3)[nH]1 [Compound 134-1, N-[2,4-difluoro-3-[(6S)-1-(5-methyl-4H-1,2,4-triazol-3-yl)-5H,6H,7H,8H-imidazo[1,5-a]pyridin-6-yl]phenyl]-5-fluoro-2-methylpyridine-3-sulfonamide] | < 50
Cc1nnc(-c2ncn3c2CC[C@H](c2c(F)ccc(NS(=O)(=O)c4cc(F)cnc4C)c2F)C3)[nH]1 [Compound 134-2, N-[2,4-difluoro-3-[(6R)-1-(5-methyl-4H-1,2,4-triazol-3-yl)-5H,6H,7H,8H-imidazo[1,5-a]pyridin-6-yl]phenyl]-5-fluoro-2-methylpyridine-3-sulfonamide] | < 50
Cc1nnc(-c2ncn3c2CC[C@@H](c2c(F)ccc(NS(=O)(=O)c4cc(Cl)cnc4C)c2F)C3)[nH]1 [Compound 136-1, 5-chloro-N-[2,4-difluoro-3-[(6S)-1-(5-methyl-4H-1,2,4-triazol-3-yl)-5H,6H,7H,8H-imidazo[1,5-a]pyridin-6-yl]phenyl]-2-methylpyridine-3-sulfonamide] | < 50
Cc1nnc(-c2ncn3c2CC[C@H](c2c(F)ccc(NS(=O)(=O)c4cc(Cl)cnc4C)c2F)C3)[nH]1 [Compound 136-2, 5-chloro-N-[2,4-difluoro-3-[(6R)-1-(5-methyl-4H-1,2,4-triazol-3-yl)-5H,6H,7H,8H-imidazo[1,5-a]pyridin-6-yl]phenyl]-2-methylpyridine-3-sulfonamide] | < 50
CNC(=O)c1ncn2cc(-c3c(Cl)ccc(NS(=O)(=O)c4cc(Cl)cnc4OC)c3F)ccc12 [Compound 137, 6-[6-chloro-3-(5-chloro-2-methoxypyridine-3-sulfonamido)-2-fluorophenyl]-N-methylimidazo[1,5-a]pyridine-1-carboxamide] | < 50
CNC(=O)c1ncn2nc(-c3c(Cl)ccc(NS(=O)(=O)c4cc(Cl)cnc4C)c3F)ccc12 [Compound 138, 2-[6-chloro-3-(5-chloro-2-methylpyridine-3-sulfonamido)-2-fluorophenyl]-N-methylimidazo[1,5-b]pyridazine-5-carboxamide] | < 50
CNC(=O)c1ncn2nc(-c3c(F)ccc(NS(=O)(=O)c4cc(Cl)cnc4C)c3Cl)ccc12 [Compound 139, 2-[2-chloro-3-(5-chloro-2-methylpyridine-3-sulfonamido)-6-fluorophenyl]-N-methylimidazo[1,5-b]pyridazine-5-carboxamide] | < 50
CNC(=O)c1ncn2cc(-c3c(Cl)ccc(NS(=O)(=O)c4cc(Cl)cnc4OC)c3F)ncc12 [Compound 141, 6-(6-chloro-3-((5-chloro-2-methoxypyridine)-3-sulfonamido)-2-fluorophenyl)-N-methylimidazo[1,5-a]pyrazine-1-carboxamide] | < 50
COc1ncc(F)cc1S(=O)(=O)Nc1ccc(Cl)c(-c2cn3cnc(-c4ncc[nH]4)c3cn2)c1F [Compound 142, N-[4-chloro-2-fluoro-3-[1-(1H-imidazol-2-yl)imidazo[1,5-a]pyrazin-6-yl]phenyl]-5-fluoro-2-methoxypyridine-3-sulfonamide] | < 50
COc1ncc(Cl)cc1S(=O)(=O)Nc1ccc(F)c(-c2ccc3c(-c4nc(C)c(C)[nH]4)ncn3c2)c1F [Compound 143, 5-chloro-N-(3-(1-(4,5-dimethyl-1H-imidazol-2-yl)imidazo[1,5-a]pyridin-6-yl)-2,4-difluorophenyl)-2-methoxypyridine-3-sulfonamide] | < 50
COc1ncc(F)cc1S(=O)(=O)Nc1ccc(F)c(-c2ccc3c(-c4nc(C)c(C)[nH]4)ncn3c2)c1F [Compound 144, N-(3-(1-(4,5-dimethyl-1H-imidazol-2-yl)imidazo[1,5-a]pyridin-6-yl)-2,4-difluorophenyl)-5-fluoro-2-methoxypyridine-3-sulfonamide] | < 50
Cc1ncc(F)cc1S(=O)(=O)Nc1ccc(F)c(-c2ccc3c(-c4nc(C)c(C)[nH]4)ncn3c2)c1F [Compound 145, N-(3-(1-(4,5-dimethyl-1H-imidazol-2-yl)imidazo[1,5-a]pyridin-6-yl)-2,4-difluorophenyl)-5-fluoro-2-methylpyridine-3-sulfonamide] | < 50
Cc1ncc(Cl)cc1S(=O)(=O)Nc1ccc(F)c(-c2ccc3c(-c4nc(C)c(C)[nH]4)ncn3c2)c1F [Compound 146, 5-chloro-N-(3-(1-(4,5-dimethyl-1H-imidazol-2-yl)imidazo[1,5-a]pyridin-6-yl)-2,4-difluorophenyl)-2-methylpyridine-3-sulfonamide] | < 50
COc1ncc(Cl)cc1S(=O)(=O)Nc1ccc(F)c(-c2ccc3c(-c4nc5c([nH]4)CCCC5)ncn3c2)c1F [Compound 147, 5-chloro-N-(2,4-difluoro-3-(1-(4,5,6,7-tetrahydro-1H-benzo[d]imidazol-2-yl)imidazo[1,5-a]pyridin-6-yl)phenyl)-2-methoxypyridine-3-sulfonamide] | < 50
COc1ncc(F)cc1S(=O)(=O)Nc1ccc(F)c(-c2ccc3c(-c4nc5c([nH]4)CCCC5)ncn3c2)c1F [Compound 148, N-(2,4-difluoro-3-(1-(4,5,6,7-tetrahydro-1H-benzo[d]imidazol-2-yl)imidazo[1,5-a]pyridin-6-yl)phenyl)-5-fluoro-2-methoxypyridine-3-sulfonamide] | < 50
Cc1ncc(F)cc1S(=O)(=O)Nc1ccc(F)c(-c2ccc3c(-c4nc5c([nH]4)CCCC5)ncn3c2)c1F [Compound 149, N-(2,4-difluoro-3-(1-(4,5,6,7-tetrahydro-1H-benzo[d]imidazol-2-yl)imidazo[1,5-a]pyridin-6-yl)phenyl)-5-fluoro-2-methylpyridine-3-sulfonamide] | < 50
Cc1ncc(Cl)cc1S(=O)(=O)Nc1ccc(F)c(-c2ccc3c(-c4nc5c([nH]4)CCCC5)ncn3c2)c1F [Compound 150, 5-chloro-N-(2,4-difluoro-3-(1-(4,5,6,7-tetrahydro-1H-benzo[d]imidazol-2-yl)imidazo[1,5-a]pyridin-6-yl)phenyl)-2-methylpyridine-3-sulfonamide] | < 50
COc1ncc(F)cc1S(=O)(=O)Nc1ccc(F)c(-c2cn3cnc(-c4ncc[nH]4)c3cn2)c1Cl [Compound 151, N-[2-chloro-4-fluoro-3-[1-(1H-imidazol-2-yl)imidazo[1,5-a]pyrazin-6-yl]phenyl]-5-fluoro-2-methoxypyridine-3-sulfonamide] | < 50
COC(=O)c1ccc2nc(-c3ncn4cc(-c5c(F)ccc(NS(=O)(=O)c6cc(F)cnc6OC)c5F)ncc34)[nH]c2c1 [Compound 153, methyl 2-[6-[2,6-difluoro-3-(5-fluoro-2-methoxypyridine-3-sulfonamido)phenyl]imidazo[1,5-a]pyrazin-1-yl]-3H-1,3-benzodiazole-5-carboxylate] | < 50
COc1ncc(F)cc1S(=O)(=O)Nc1ccc(F)c(-c2cn3cnc(-c4nc(-c5ccccc5)c[nH]4)c3cn2)c1F [Compound 156, N-[2,4-difluoro-3-[1-(4-phenyl-1H-imidazol-2-yl)imidazo[1,5-a]pyrazin-6-yl]phenyl]-5-fluoro-2-methoxypyridine-3-sulfonamide] | < 50
COc1ncc(Cl)cc1S(=O)(=O)Nc1ccc(F)c(-c2cn3cnc(C(=O)NC(C)C)c3cn2)c1F [Compound 157, 6-[3-(5-chloro-2-methoxypyridine-3-sulfonamido)-2,6-difluorophenyl]-N-isopropylimidazo[1,5-a]pyrazine-1-carboxamide] | < 50
